According to PMC6274369, “Novel Anthranilamide-Based FXa Inhibitors: Drug Design, Synthesis and Biological Evaluation” (Molecules, 2016):

Columns and labels:
FXa = settings: Figure 4, design basis; no reference given; cited from earlier work
human FXa = target: T1, human FXa (Homo sapiens, UniProt P00742); assay: Inhibition of FXa in vitro (chromogenic substrate CS-11(22)); type: biochemical; settings: for Ki: Km = 2.4; for IC50: chromogenic substrate, 37 °C, pH 7.4
T1 construct: purchased Hyphen BioMed, Paris, France
T1 sequence (P00742 235-488 limits assumed): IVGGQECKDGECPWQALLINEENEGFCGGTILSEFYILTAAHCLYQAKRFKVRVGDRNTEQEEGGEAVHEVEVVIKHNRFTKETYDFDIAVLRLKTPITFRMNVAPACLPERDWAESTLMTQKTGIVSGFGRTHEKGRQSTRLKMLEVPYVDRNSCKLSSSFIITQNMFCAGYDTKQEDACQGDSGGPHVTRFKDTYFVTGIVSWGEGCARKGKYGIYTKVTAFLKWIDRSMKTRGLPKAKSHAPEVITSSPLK
T1 sequence (P00742 41-179 partner limits assumed): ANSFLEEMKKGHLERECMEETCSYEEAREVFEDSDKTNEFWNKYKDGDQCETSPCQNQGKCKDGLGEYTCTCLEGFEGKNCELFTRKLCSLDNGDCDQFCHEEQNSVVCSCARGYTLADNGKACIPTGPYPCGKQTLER
Procedure: The inhibition of FXa was measured using human FXa (Hyphen BioMed, Paris, France) and chromogenic substrate CS-11(22) (Hyphen BioMed, Paris, France) in 384-well microtiter plates at room temperature. […] 2 μL of FXa (56.8 nM), 16 μL of Tris buffer (adjust to pH 7.4 with HCl containing 0.3 M NaCl and 50 mM Tris) and 3 μL of test compound were added to the well, respectively. The negative control was composed of the same mixed solutions except replacing test compound with DMSO. […] After incubated at 37 °C for 5 min, 8 μL of FXa substrate solution (3.5 mM) was added and then incubated at 37 °C for 25 min. The FXa activity was measured at 405 nm using a SpectraMax M5 (Molecular Devices, Sunnyvale, CA, USA). The IC50 was calculated by the software named SPSS (IBM, North Castle, NY, USA) and the Probit function in it.

human FIIa = target: T2, human FIIa (Homo sapiens, UniProt P00734); assay: Thrombin inhibition in vitro (chromogenic substrate CS-01(38)); type: biochemical; settings: tested 10 μM to 100 μM
T2 construct: purchased Hyphen BioMed, Paris, France
Procedure: The inhibition of thrombin was measured using human FIIa (Hyphen BioMed, Paris, France) and chromogenic substrate CS-01(38) (Hyphen BioMed, Paris, France) in 384-well microtiter plates at room temperature. […] 2 μL of FIIa (3 NIH/mL), 20 μL of Tris buffer (adjust to pH 7.4 with HCl) containing 0.3 M NaCl and 50 mM Tris and 2 μL of test compound were added to the well, respectively. The negative control was composed of the same mixed solutions except replacing test compound with DMSO. The positive control was composed of the same mixed solutions except replacing test compound with Rivaroxaban. After incubated at 37 °C for 5 min, 3 μL of FIIa substrate solution (4 mM) was added and then incubated at 37 °C for 25 min. The FIIa activity was measured at 405 nm using a SpectraMax M5 (Molecular Devices).

rat plasma = assay: Prothrombin time (PT) assay in rat plasma; type: biochemical; settings: concentration doubling prothrombin time
Procedure: (§1) A commercially available automatic coagulometer (Steellex Science Instrument Co., Ltd., Beijing, China) was employed to measure PT. The clotting times were also measured using the instrument itself, in accordance with the manufacturer’s instructions. Increasing concentrations of inhibitor or solvent were added to rat (Sprague-Dawley rats, Shanchuanhong Experimental Animals Co., Ltd., Tianjin, China) and human plasma and incubated for 3 min at 37 °C. Prothrombin time (PT) was determined by automatic coagulometer.

human plasma = assay: Prothrombin time (PT) assay in human plasma; type: biochemical; settings: concentration doubling prothrombin time
Procedure: as §1

thrombin = system: thrombin; design: method as in PMID 16305517; settings: read-out: selectivity against thrombin (IC50); cited from earlier work

Structure (SMILES)	IC50 (human FXa)	other results
O=C(Nc1ccccc1C(=O)Nc1ccc(-n2ccccc2=O)cc1)c1ccc(Cl)s1 [Compound 1a, 5-Chloro-N-(2-((4-(2-oxopyridin-1(2H)-yl)phenyl)carbamoyl)phenyl)thiophene-2-carboxamide]	30.2 nM	Ki (human FXa): 22 nM; IC50 (human FIIa): > 10 µM
O=C(Nc1ccccc1C(=O)Nc1ccc(-n2ccccc2=O)cc1)c1ccc(F)cc1 [Compound 1b, 2-(4-Fluorobenzamido)-N-(4-(2-oxopyridin-1(2H)-yl)phenyl)benzamide]	> 1000 nM	
O=C(Nc1ccccc1C(=O)Nc1ccc(-n2ccccc2=O)cc1)c1ccc(Cl)cc1 [Compound 1c, 2-(4-Chlorobenzamido)-N-(4-(2-oxopyridin-1(2H)-yl)phenyl)benzamide]	197 nM	
O=C(Nc1ccc(Cl)cc1C(=O)Nc1ccc(-n2ccccc2=O)cc1)c1ccc(Cl)s1 [Compound 1d, 5-Chloro-N-(4-chloro-2-((4-(2-oxopyridin-1(2H)-yl)phenyl)carbamoyl)phenyl)thiophene-2-carboxamide]	430 nM	
O=C(Nc1ccc(Cl)cc1C(=O)Nc1ccc(-n2ccccc2=O)cc1)c1ccc(F)cc1 [Compound 1e, 5-Chloro-2-(4-fluorobenzamido)-N-(4-(2-oxopyridin-1(2H)-yl)phenyl)benzamide]	> 1000 nM	
O=C(Nc1ccc(Cl)cc1C(=O)Nc1ccc(-n2ccccc2=O)cc1)c1ccc(Cl)cc1 [Compound 1f, 5-Chloro-2-(4-chlorobenzamido)-N-(4-(2-oxopyridin-1(2H)-yl)phenyl)benzamide]	570 nM	
Cc1ccc(NC(=O)c2ccc(Cl)s2)c(C(=O)Nc2ccc(-n3ccccc3=O)cc2)c1 [Compound 1g, 5-Chloro-N-(4-methyl-2-((4-(2-oxopyridin-1(2H)-yl)phenyl)carbamoyl)phenyl)thiophene-2-carboxami-de]	25 nM	Ki (human FXa): 16.4 nM; IC50 (human FIIa): > 10 µM; 2 × PT (μM) (Rat) (rat plasma): 19.7 µM; 2 × PT (μM) (Human) (human plasma): 12.8 µM
Cc1ccc(NC(=O)c2ccc(F)cc2)c(C(=O)Nc2ccc(-n3ccccc3=O)cc2)c1 [Compound 1h, 2-(4-Fluorobenzamido)-5-methyl-N-(4-(2-oxopyridin-1(2H)-yl)phenyl)benzamide]	> 1000 nM	
Cc1ccc(NC(=O)c2ccc(Cl)cc2)c(C(=O)Nc2ccc(-n3ccccc3=O)cc2)c1 [Compound 1i, 2-(4-Chlorobenzamido)-5-methyl-N-(4-(2-oxopyridin-1(2H)-yl)phenyl)benzamide]	511 nM	
Cc1cccc(C(=O)Nc2ccc(-n3ccccc3=O)cc2)c1NC(=O)c1ccc(Cl)s1 [Compound 1j, 5-Chloro-N-(2-methyl-6-((4-(2-oxopyridin-1(2H)-yl)phenyl)carbamoyl)phenyl)thiophene-2-carboxami-de]	> 1000 nM	
Cc1cccc(C(=O)Nc2ccc(-n3ccccc3=O)cc2)c1NC(=O)c1ccc(F)cc1 [Compound 1k, 2-(4-Fluorobenzamido)-3-methyl-N-(4-(2-oxopyridin-1(2H)-yl)phenyl)benzamide]	> 1000 nM	
Cc1cccc(C(=O)Nc2ccc(-n3ccccc3=O)cc2)c1NC(=O)c1ccc(Cl)cc1 [Compound 1l, 2-(4-Chlorobenzamido)-3-methyl-N-(4-(2-oxopyridin-1(2H)-yl)phenyl)benzamide]	> 1000 nM	
O=C(Nc1ccccc1C(=O)Nc1ccc(N2CCOCC2=O)cc1)c1ccc(Cl)s1 [Compound 1m, 5-Chloro-N-(2-((4-(3-oxomorpholino)phenyl)carbamoyl)phenyl)thiophene-2-carboxamide]	317 nM	
O=C(Nc1ccccc1C(=O)Nc1ccc(N2CCOCC2=O)cc1)c1ccc(F)cc1 [Compound 1n, 2-(4-Fluorobenzamido)-N-(4-(3-oxomorpholino)phenyl)benzamide]	> 1000 nM	
O=C(Nc1ccccc1C(=O)Nc1ccc(N2CCOCC2=O)cc1)c1ccc(Cl)cc1 [Compound 1o, 2-(4-Chlorobenzamido)-N-(4-(3-oxomorpholino)phenyl)benzamide]	440 nM	
O=C(Nc1ccc(Cl)cc1C(=O)Nc1ccc(N2CCOCC2=O)cc1)c1ccc(Cl)s1 [Compound 1p, 5-Chloro-N-(4-chloro-2-((4-(3-oxomorpholino)phenyl)carbamoyl)phenyl)thiophene-2-carboxamide]	111 nM	
O=C(Nc1ccc(Cl)cc1C(=O)Nc1ccc(N2CCOCC2=O)cc1)c1ccc(F)cc1 [Compound 1q, 5-Chloro-2-(4-fluorobenzamido)-N-(4-(3-oxomorpholino)phenyl)benzamide]	> 1000 nM	
O=C(Nc1ccc(Cl)cc1C(=O)Nc1ccc(N2CCOCC2=O)cc1)c1ccc(Cl)cc1 [Compound 1r, 5-Chloro-2-(4-chlorobenzamido)-N-(4-(3-oxomorpholino)phenyl)benzamide]	951 nM	
Cc1ccc(NC(=O)c2ccc(Cl)s2)c(C(=O)Nc2ccc(N3CCOCC3=O)cc2)c1 [Compound 1s, 5-Chloro-N-(4-methyl-2-((4-(3-oxomorpholino)phenyl)carbamoyl)phenyl)thiophene-2-carboxamide]	71 nM	Ki (human FXa): 54.4 nM; IC50 (human FIIa): > 10 µM; 2 × PT (μM) (Rat) (rat plasma): 24.2 µM; 2 × PT (μM) (Human) (human plasma): 10.4 µM
Cc1ccc(NC(=O)c2ccc(F)cc2)c(C(=O)Nc2ccc(N3CCOCC3=O)cc2)c1 [Compound 1t, 2-(4-Fluorobenzamido)-5-methyl-N-(4-(3-oxomorpholino)phenyl)benzamide]	> 1000 nM	
Cc1ccc(NC(=O)c2ccc(Cl)cc2)c(C(=O)Nc2ccc(N3CCOCC3=O)cc2)c1 [Compound 1u, 2-(4-Chlorobenzamido)-5-methyl-N-(4-(3-oxomorpholino)phenyl)benzamide]	> 1000 nM	
Cc1cccc(C(=O)Nc2ccc(N3CCOCC3=O)cc2)c1NC(=O)c1ccc(Cl)s1 [Compound 1v, 5-Chloro-N-(2-methyl-6-((4-(3-oxomorpholino)phenyl)carbamoyl)phenyl)thiophene-2-carboxamide]	> 1000 nM	
Cc1cccc(C(=O)Nc2ccc(N3CCOCC3=O)cc2)c1NC(=O)c1ccc(F)cc1 [Compound 1w, 2-(4-Fluorobenzamido)-3-methyl-N-(4-(3-oxomorpholino)phenyl)benzamide]	> 1000 nM	
Cc1cccc(C(=O)Nc2ccc(N3CCOCC3=O)cc2)c1NC(=O)c1ccc(Cl)cc1 [Compound 1x, 2-(4-Chlorobenzamido)-3-methyl-N-(4-(3-oxomorpholino)phenyl)benzamide]	> 1000 nM	
COc1ccc(C(=O)Nc2cccc(O)c2NC(=O)c2ccc(N3CCCN(C)CC3)cc2)cc1 [Darexaban]		IC50 (FXa): 54.6 nM
O=C(NC[C@H]1CN(c2ccc(N3CCOCC3=O)cc2)C(=O)O1)c1ccc(Cl)s1 [Rivaroxaban, reference compound]		2 × PT (μM) (Rat) (rat plasma): 0.3 µM; 2 × PT (μM) (Human) (human plasma): 0.2 µM; IC50 (FXa): […]; IC50 (thrombin): > 6.9 µM
